According to the NIST ThermoML archive (doi:10.1016/j.jct.2008.12.005):
Numbers after ± are expanded uncertainties.

Assay: activity coefficient (dimensionless); of the first substance listed, at infinite dilution; xn = mol fraction of the nth substance listed
Conditions: 101 kPa, Liquid, Chromatography, x1 = 0

| Compound | activity coefficient (298.15 K) | activity coefficient (308.15 K) | activity coefficient (318.15 K) | activity coefficient (328.15 K) | activity coefficient (338.15 K) | activity coefficient (348.15 K) | activity coefficient (358.15 K) | activity coefficient (368.15 K) |
| --- | --- | --- | --- | --- | --- | --- | --- | --- |
| COC(C)(C)C [2-methoxy-2-methylpropane] + CC[S+](CC)CC.O=S(=O)([N-]S(=O)(=O)C(F)(F)F)C(F)(F)F | 2.92 ± 0.2 | 2.94 ± 0.2 | 2.96 ± 0.2 | 2.98 ± 0.2 | 3 ± 0.2 | 3.02 ± 0.21 | 3.03 ± 0.21 | 3.05 ± 0.21 |
| O [water] + CC[S+](CC)CC.O=S(=O)([N-]S(=O)(=O)C(F)(F)F)C(F)(F)F | – | 3.91 ± 0.27 | 3.39 ± 0.23 | 2.97 ± 0.2 | 2.63 ± 0.18 | 2.33 ± 0.16 | 2.08 ± 0.14 | 1.88 ± 0.13 |
| CCCCO [butan-1-ol] + CC[S+](CC)CC.O=S(=O)([N-]S(=O)(=O)C(F)(F)F)C(F)(F)F | – | 3.32 ± 0.23 | 2.96 ± 0.2 | 2.66 ± 0.18 | 2.41 ± 0.16 | 2.2 ± 0.15 | 2 ± 0.14 | 1.84 ± 0.12 |
| C1CCCCCCC1 [cyclooctane] + CC[S+](CC)CC.O=S(=O)([N-]S(=O)(=O)C(F)(F)F)C(F)(F)F | 30.3 ± 2.1 | 27.2 ± 1.9 | 24.5 ± 1.7 | 22.4 ± 1.5 | 20.4 ± 1.4 | 18.7 ± 1.3 | 17.2 ± 1.2 | 16 ± 1.1 |
| Cc1ccc(C)cc1 [1,4-dimethylbenzene] + CC[S+](CC)CC.O=S(=O)([N-]S(=O)(=O)C(F)(F)F)C(F)(F)F | – | 2.27 ± 0.15 | 2.3 ± 0.16 | 2.32 ± 0.16 | 2.34 ± 0.16 | 2.36 ± 0.16 | 2.38 ± 0.16 | 2.4 ± 0.16 |
| CCCCCCCCCC [decane] + CC[S+](CC)CC.O=S(=O)([N-]S(=O)(=O)C(F)(F)F)C(F)(F)F | 131 ± 9 | 114 ± 8 | 101 ± 7 | 89.6 ± 6.1 | 80 ± 5.5 | 72.5 ± 5 | 65.8 ± 4.5 | 59.7 ± 4.1 |
| C=CCCCCC [1-heptene] + CC[S+](CC)CC.O=S(=O)([N-]S(=O)(=O)C(F)(F)F)C(F)(F)F | 18.3 ± 1.3 | 17.2 ± 1.2 | 16.1 ± 1.1 | 15.2 ± 1 | 14.4 ± 1 | 13.7 ± 0.9 | 12.9 ± 0.9 | 12.4 ± 0.8 |
| C=CCCCCCC [oct-1-ene] + CC[S+](CC)CC.O=S(=O)([N-]S(=O)(=O)C(F)(F)F)C(F)(F)F | 27 ± 1.8 | 25 ± 1.7 | 23.2 ± 1.6 | 21.8 ± 1.5 | 20.4 ± 1.4 | 19.2 ± 1.3 | 18.2 ± 1.2 | 17.3 ± 1.2 |
| C1CCCCC1 [cyclohexane] + CC[S+](CC)CC.O=S(=O)([N-]S(=O)(=O)C(F)(F)F)C(F)(F)F | 16.1 ± 1.1 | 14.7 ± 1 | 13.5 ± 0.9 | 12.4 ± 0.8 | 11.6 ± 0.8 | 10.7 ± 0.7 | 10 ± 0.7 | 9.43 ± 0.64 |
| CCCCCCC [heptane] + CC[S+](CC)CC.O=S(=O)([N-]S(=O)(=O)C(F)(F)F)C(F)(F)F | 40.4 ± 2.8 | 36.9 ± 2.5 | 33.5 ± 2.3 | 30.5 ± 2.1 | 28.1 ± 1.9 | 26 ± 1.8 | 24.1 ± 1.6 | 22.5 ± 1.5 |
| CCc1ccccc1 [ethylbenzene] + CC[S+](CC)CC.O=S(=O)([N-]S(=O)(=O)C(F)(F)F)C(F)(F)F | 2.42 ± 0.16 | 2.43 ± 0.17 | 2.43 ± 0.17 | 2.44 ± 0.17 | 2.44 ± 0.17 | 2.45 ± 0.17 | 2.45 ± 0.17 | 2.45 ± 0.17 |
| C#CCCCCCC [1-octyne] + CC[S+](CC)CC.O=S(=O)([N-]S(=O)(=O)C(F)(F)F)C(F)(F)F | 7.87 ± 0.54 | 7.68 ± 0.52 | 7.51 ± 0.51 | 7.35 ± 0.5 | 7.2 ± 0.49 | 7.06 ± 0.48 | 6.93 ± 0.47 | 6.81 ± 0.46 |
